Here are results for 1 molecule from patent US6514951B1, “Pour-on formulations effective for the control of internal and external parasites of homothermic animals” (American Cyanamid Company, priority 1989, dated 2003).

This test relates to gastrointestinal nematodes. Briefly: Influence of simulated rain on reduction of nematode egg output in feces of cattle after pour-on. Conditions: at all times posttreatment regardless of exposure to simulated rainfall. It is filed as in vivo, Cooperia, Haemonchus, Ostertagia and Trichostrongylus. An excerpt:
The objective of this study is to determine the potential effect of rainfall on the efficacy of a pour-on formulation of 23-(O-methyloxime)-LL-F28249α (0.5% w/v) against gastrointestinal nematodes. Formulation 10 reported in Example 2, above, is employed for the study.
Forty-eight mixed beef breed heifers are ranked according to the average of the day −3 and day −2 fecal nematode egg counts and randomly assigned to the following groups of 6 animals each:
All cattle treated with 23-(O-methyloxime)-LL-F28249α pour-on are treated with 0.5 mg 23-(O-methyloxime)-LL-F28249α per kg of body weight. All animals exposed to simulated rain are sprayed with the equivalent of 1 inch of water for 30 minutes.
Following treatment, cattle are housed in outdoor pens which are partially covered by a three sided shed. Cattle remain outdoors during the entire posttreatment period. However, they are confined to a covered portion of the pen when it is raining or rainfall is imminent. […]
The simulated rainfall apparatus used in this trial consists of a 12 feet×12 feet pen with right angle directional spray nozzles in each corner. It is calculated that 89.75 gallons of water applied to this size pen are the equivalent of 1 inch of rain. […]
Fecal samples are taken from all animals on days 7, 14 and 21 posttreatment to evaluate nematode egg counts. The values are expressed as number of eggs per 1 g of feces.

Molecules are shown by their SMILES.

As to `CO/N=C1\C[C@]2(C[C@@H]3CC(C/C=C(\C)C[C@@H](C)/C=C/C=C4\CO[C@@H]5[C@H](O)C(C)=C[C@@H](C(=O)O3)[C@]45O)O2)O[C@H](/C(C)=C/C(C)C)[C@H]1C` [23-(O-methyloxime)-LL-F28249α], the “nematode egg counts (in words)” value is given as “significantly reduces”.
